Assay results published in EP0098138A2, “Microbial cells and the use thereof to produce oxidation products” (EXXON RESEARCH AND ENGINEERING COMPANY, priority 1982, dated 1984).
Where two headings read alike, the source gives them in different places.

Experiments:
[1] = system: secondary alcohol dehydrogenase; test: Oxidation of secondary alcohols by soluble extracts (NAD+ reduction at 340 nm); type: biochemical, Arthrobacter sp. (CRL 60 P1) NRRL B-11,315; conditions: substrate of soluble extracts, pH 8.0, 100% = 22 nmoles of NAD+ reduced per minute per mg of protein
Procedure: (§1) Cell suspensions of the microorganism strains identified in Table XII grown on the indicated growth substrate were disrupted with a wave energy ultrasonic oscillator Model W201 (Wave Energy System, Inc., Newton, Pa) and centrifuged at 30,000 x g for 30 min. The supernatant solution (cell extracts) was used for the oxidation of secondary alcohols. Secondary alcohol dehydrogenase activity was measured spectrophotometrically at 340 nm with oxidized nicotinamide adenine dinucleotide (NAD^+) as an electron acceptor.
(§2) The initial reaction mixture, in a total volume of 3.0 ml, consisted of 50mM phosphate buffer of pH 8.0, 5 µ moles of NAD^+, and cell extract.

alkane monooxygenase = test: Epoxidation of alkenes and styrene by soluble extracts; type: biochemical, Brevibacterium sp. (CRL 56 P6Y) NRRL B-11,319
Procedure: The microorganism Brevibacterium sp. […] The fermentor was inoculated with 2 liters of a culture grown in flasks.
The cells thus grown were washed twice with 25 mM potassium phosphate buffer pH 7.0 and suspended in the same buffer solution containing 5mM MgCl2 and deoxyribonuclease (0.05 mg/ml). […] Disintegrated cell suspensions were centrifuged at 15,000 x g for 15 min. to remove unbroken cells. The supernatant solution was then centrifuged at 40,000 x g for 60 minutes and the supernatant solution therefrom was again centrifuged at 80,000 x g for 60 minutes, yielding the soluble fraction.
Several 3-ml vials at 4°C were charged with 0.2 ml of a reaction mixture consisting of 10 µmoles potassium phosphate buffer pH 7.0, 4 µ cmoles NADH2, and the soluble enzyme fraction obtained above. The gaseous phase of the vials was evacuated by vacuum and replaced with a gas mixture of gaseous oxidation substrate and oxygen (1:1 v/v); in the case of a liquid oxidation substrate, 2 µl of substrate was added. The vials were incubated at 35 °C on a reciprocating water bath shaker at 50 oscillations per minute.
The rate of epoxidation of alkenes and styrene was measured by injecting 1-2 µ1 samples of the reaction mixture into a gas chromatograph immediately after addition of substrate (zero time) and after 5 and 10 min. of incubation. Specific activities were expressed as […] of product formed per 10 min. per mg of protein. With each substrate, control experiments were conducted in the absence of NADH2, in the absence of oxygen, and using boiled extracts.

[2] = system: Propylene-Oxidizing Activity of Arthrobacter sp. (CRL 60 P1) NRRL B-11,315; test: Effect of inhibitors on propylene-oxidizing activity (propylene oxide formation) of propane-grown cell suspensions; type: cell-based; conditions: for inhibition at 1000 µM: Arthrobacter, NRRLB11, 0.25 h
Procedure: (§3) The pH of the nutrient medium was adjusted to 7.0 by the addition of acid or base and 50 ml samples of the nutrient medium were charged into a plurality of 300 ml shake flasks. The shake flasks were inoculated with an innoculating loop of cells from an agar plate containing homogeneous colonies of the microorganisms on the plate (the purity of the isolates was confirmed by microscopic examination). […] In the case of growth on liquid substrates (at 0.3%, v/v), the gaseous phase of the flasks was air. The inoculated flasks were sealed air tight and were incubated on a rotary shaker at 250 rpm and at 30°C for two days until turbidity in the medium had developed.
(§4) The cells were harvested by centrifugation at 12,000 x g. at 4 °C for 15 minutes. The cell pellet was washed twice with a 50 mM phosphate buffer at a pH of 7.0. The washed cells were then suspended in a 50mM phosphate buffer at pH 7.0.
(§5) The gaseous phase of the vials was removed with vacuum and then was replaced with a gas mixture of the oxidative substrate (e.g. ethane) and oxygen at a 1:1 v/v ratio. If a liquid substrate was employed, 5-10 µl of substrate was placed in the vials. […] Samples (3 µl) were withdrawn periodically with a microsyringe and the products were analyzed by gas chromatography (ionization flame detector column) at a column temperature of 100°C to 180 °C and at a carrier gas flow rate of 30 or 35 ml/ min of helium. The various products were identified by retention time comparisons and co-chromatography with authentic standards. […] Protein in the cell suspensions was determined by the method described by […].
(§6) All inhibitors were added at 1mM concentration and the cell suspensions were incubated for 15 min. at 4 °C.

[3] = system: Propane-Oxidizing Activity of Arthrobacter sp. (CRL 60 P1) NRRL B-11,315; test: Effect of inhibitors on propane-oxidizing activity (acetone production) of propane-grown cell suspensions; type: cell-based; conditions: for inhibition at 1000 µM: Arthrobacter, NRRLB11, 0.25 h
Procedure: as §3, §4, §5, §6

[4] = system: secondary alcohol dehydrogenase; test: Effect of inhibitors on oxidation of 2-butanol by cell extracts (NAD+ reduction at 340 nm); type: biochemical, Arthrobacter sp. (CRL 60 P1) NRRL B-11,315
Procedure: as §1, §2
All inhibitors were tested at lmM concentration and incubated with the soluble extracts in the reaction mixture for 15 min at 0°C. Otherwise the procedure described above was followed.

[5] = system: Cell-Free Particulate Fraction of Arthrobacter sp. (CRL 60 P1) NRRL B-11,315; test: Oxidation of alkenes and alkanes by cell-free particulate P(40) fraction; type: biochemical
Procedure: (§9) Cells were harvested during exponential growth by centrifugation at 12,000 x g for 15 min. at 4°C. Cells were washed twice with a 25 mM potassium phosphate buffer of pH 7.0 containing 5mM MgCl2 and were then suspended in the same buffer. The resulting cell suspensions at 4°C were disintegrated by a single passage through a French pressure cell (45 mPa) and centrifuged at 5,000 x g for 15 min to remove unbroken bacteria. […] The particulate fraction [P(40)] was suspended in the same buffer as described above and homogenized at 4°C.
(§10) A 1.0 ml sample containing the particulate or soluble fraction, 10 µ moles NADH and 150 mM potassium phosphate buffer at pH 7.0 containing 3 µ moles MgCl2 was put into separate 10 ml vials at 4°C which were sealed with a rubber cap. The gaseous phase of the vials was removed by vacuum and replaced with a gas mixture of the indicated alkane or alkene as substrate and oxygen at a 1:1 v/v ratio. The vials were then incubated at 30°C on a rotary shaker at 200 rpm for 10 minutes.
Reactions were linear during the first 15 minutes of incubation as measured by detection of product by gas chromatography.

[6] = system: Cell-Free Particulate P(40) Fraction of Arthrobacter sp. (CRL 60 P1) NRRL B-11,315
Procedure: as §9, §10

[7] = system: Arthrobacter sp. (CRL 60 Pl) NRRL B-11,315; test: Effect of propane on oxidation of propylene to propylene oxide by cell suspensions; type: cell-based; conditions: propane added to cell suspensions epoxidising propylene
Excerpt: (§7) The following summarizes tests conducted on the optimal conditions for the production of propylene oxide from propylene using cell suspensions of propane-grown Arthrobacter sp. (CRL 60 Pl) NRRL B-11,315 as the representative microorganism strain. It will be understood that these are optimal conditions found for one particular strain and one particular substrate, and the invention is not meant to be bound by them. Conversions of propylene can still be obtained using Arthrobacter sp. (CRL 60 Pl) NRRL B-11,315 by deviating from the optimum indicated below, but with lower yields and conversions.
The effect of propane on the oxidation of propylene to propylene oxide was studied to determine if a single enzyme system was responsible for the oxidation of both propane and propylene.

[8] = system: Arthrobacter sp. (CRL 60 Pl) NRRL B-11,335
Procedure: as §5
Arthrobacter sp. […] Ethanol was converted to acetaldehyde (acetyl Co ~A in vivo) by primary alcohol dehydrogenase, yielding 1 mole of NADH, with subsequent oxidation of the intermediate acetyl Co ~A to carbon dioxide, yielding 3 additional moles of NADH.

[9] = type: physicochemical
Procedure: (§8) To determine if the slower reaction rate after 40-60 min of incubation was due to enzymatic or non-enzymatic oxidation of propylene oxide or due to product inhibition, 5 µ moles of propylene oxide was added to viable and to heat-killed cell suspensions in the presence and absence of propylene, and incubated at 30°C.
[…]. The rate of epoxidation of propylene was found not to vary markedly in the pH range from 5 to 9, with the optimum pH about 7. A 5 A mole sample of propylene oxide was added to heat-killed cell suspensions at pH 5, 7 and 9 to test for non-enzymatic degradation of propylene oxide at these pH values.

[10] = system: Arthrobacter sp. (CRL 60 Pl) NRRL B-11,315; test: Further oxidation of added propylene oxide by viable cell suspensions; type: cell-based; conditions: 5 µ moles added to viable cell suspension, 30°C
Excerpt: as §7, §8

[11] = system: Cell-Free Particulate P(40) Fraction of Arthrobacter sp. (CRL 60 P1) NRRL B-11,315; test: Effect of inhibitors on oxidation of propane and butane by cell-free particulate P(40) fraction
Procedure: as §9, §10

[12] = substrate epoxidised by soluble fraction, NADH2 and oxygen, pH 7.0, 35°C
[13] = inhibitor 1mM, cell suspensions incubated 15 min at 4°C, propylene oxide formation by gas chromatography, uninhibited rate 0.6 μmoles/15 min/mg of protein
[14] = inhibitor 1mM, cell suspensions incubated 15 min at 4°C, acetone production by gas chromatography, uninhibited rate 1.5 μ moles/hr/mg of protein
[15] = inhibitor 1mM, incubated with soluble extracts 15 min at 0°C, substrate 2-butanol, uninhibited activity 25 nmoles of NAD+ reduced per min per mg of protein
[16] = alkene substrate, epoxide product, P(40) fraction, NADH and oxygen, pH 7.0, 30°C

Compound: 2-Butanol
- Rate of Oxidation (%) [1]: 100%

Compound: C=CC=C [1,3-Butadiene]
- Rate of Product Formation (alkane monooxygenase; [12]): 0.044 μ mole/10 min./mg protein

Compound: c1cnc2c(c1)ccc1cccnc12 [1,10-Phenanthroline]
- inhibition at 1000 µM [2, 13]: 90%
- inhibition at 1000 µM [3, 14]: 80%
- Inhibition (%) [4, 15]: 80%

Compound: C=CCC [1-Butene]
- Rate of Product Formation ([5]; pH 7): 0.216 μ moles/hr/mg protein
- Rate of Product Formation (alkane monooxygenase; pH 7): 0.030 μ mole/10 min./mg protein

Compound: C=CCCCCC [1-Heptene]
- Rate of Product Formation (alkane monooxygenase; pH 7): 0.008 μ mole/10 min./mg protein

Compound: C=CCCC [1-Pentene]
- Rate of Product Formation [5, 16]: 0.195 μ moles/hr/mg protein
- Rate of Product Formation (alkane monooxygenase; [12]): 0.025 μ mole/10 min./mg protein

Compound: CCCCCC(C)O (stereo not shown) [2-Heptanol]
- Rate of Oxidation (%) [1]: 4%

Compound: CCCCC(C)O (stereo not shown) [2-Hexanol]
- Rate of Oxidation (%) [1]: 10%

Compound: CCCC(C)O (stereo not shown) [2-Pentanol]
- Rate of Oxidation (%) [1]: 12%

Compound: C=C [Ethylene]
- Rate of Product Formation ([5]; pH 7): 0.153 μ moles/hr/mg protein
- Rate of Product Formation (alkane monooxygenase; pH 7): 0.040 μ mole/10 min./mg protein

Compound: NO [Hydroxylamine]
- Inhibition (%) Propylene-Oxidizing Activity [2, 13]: 83%
- Inhibition (%) Propane-Oxidizing Activity [3, 14]: 70%

Compound: c1c[nH]cn1 [Imidazole]
- inhibition at 1000 µM [3, 14]: 80%
- inhibition [6]: 80%

Compound: C=C(C)C [Isobutene]
- Rate of Product Formation (alkane monooxygenase; [12]): 0.046 μ mole/10 min./mg protein

Compound: NNC(=O)c1ccncc1 [Isoniazide]
- inhibition at 1000 µM [2, 13]: 35%
- inhibition at 1000 µM [3, 14]: 30%

Compound: CC(C)O [Isopropanol]
- Rate of Oxidation (%) [1]: 65%

Compound: CCN1C(=O)C=CC1=O [N-Ethylmaleimide]
- inhibition at 1000 µM [2, 13]: 81%
- inhibition at 1000 µM [3, 14]: 70%
- Inhibition (%) [4, 15]: 30%

Compound: CCC [Propane]
- Rate of Product Formation ([5]; alkane substrate, primary alcohol product (n-propanol, n-butanol), P(40) fraction, NADH and oxygen, pH 7.0, 30°C): 0.600 μ moles/hr/mg protein
- Rate of Product Formation ([5]; alkane substrate, secondary alcohol product (2-propanol, 2-butanol), P(40) fraction, NADH and oxygen, pH 7.0, 30°C): 0.300 μ moles/hr/mg protein
- effect of propane on the oxidation of propylene to propylene oxide [7]: reducing the amount of propylene oxide formed

Compound: C=CC [Propylene]
- Rate of Product Formation [5, 16]: 0.360 μ moles/hr/mg protein
- Rate of Product Formation (alkane monooxygenase; [12]): 0.052 μ mole/10 min./mg protein

Compound: C=Cc1ccccc1 [Styrene]
- Rate of Product Formation (alkane monooxygenase; [12]): 0.005 μ mole/10 min./mg protein

Compound: CC(=N)S [Thioacetamide]
- inhibition at 1000 µM [2, 13]: 68%
- inhibition at 1000 µM [3, 14]: 60%

Compound: NNC(N)=S [Thiosemicarbazide]
- inhibition at 1000 µM [2, 13]: 12%
- inhibition at 1000 µM [3, 14]: 10%

Compound: NC(N)=S [Thiourea]
- inhibition at 1000 µM [2, 13]: 12%
- inhibition at 1000 µM [3, 14]: 10%

Compound: C/C=C\C [cis-But-2-ene]
- Rate of Product Formation (alkane monooxygenase; pH 7): 0.018 μ mole/10 min./mg protein

Compound: CCO [ethanol]
- Epoxidation Rate (rate of propylene oxide formation) ([8]; 5 μmole ethanol, 1 hr., control 2.5): 2.9 μ mole/0.5 ml.
- Epoxidation Rate (rate of propylene oxide formation) ([8]; 5 μmole ethanol, 2 hr., control 3.8): 5.6 μ mole/0.5 ml.
- Epoxidation Rate (rate of propylene oxide formation) ([8]; 5 μmole ethanol, 3 hr., control 3.9): 6.5 μ mole/0.5 ml.
- Epoxidation Rate (rate of propylene oxide formation) ([8]; 25 μmole ethanol, 1 hr., control 2.5): 2.4 μ mole/0.5 ml.
- Epoxidation Rate (rate of propylene oxide formation) ([8]; 25 μmole ethanol, 2 hr., control 3.8): 5.2 μ mole/0.5 ml.
- Epoxidation Rate (rate of propylene oxide formation) ([8]; 25 μmole ethanol, 3 hr., control 3.9): 6.5 μ mole/0.5 ml.

Compound: O=C(O)c1cc[c]([Hg+])cc1.[OH-] [p-Hydroxymercuribenzoate]
- Inhibition (%) Propylene-Oxidizing Activity [2, 13]: 35%
- Inhibition (%) Propane-Oxidizing Activity [3, 14]: 35%
- Inhibition (%) [4]: 95%

Compound: CC1CO1 (stereo not shown) [propylene oxide]
- amount of propylene oxide ([9]; 5 µ moles added to heat-killed cell suspensions, 30°C): remained constant
- non-enzymatic degradation of propylene oxide ([9]; heat-killed cell suspensions at pH 5, 7 and 9, one hour of incubation): did not decrease
- disappearance in propylene oxide [10]: Some disappearance

Compound: C/C=C/C [trans-But-2-ene]
- Rate of Product Formation (alkane monooxygenase; pH 7): 0.022 μ mole/10 min./mg protein

Compound: α,α-Bipyridyl
- Inhibition (%) Propylene-Oxidizing Activity [2]: 32%
- Inhibition (%) Propane-Oxidizing Activity [3]: 30%
- Inhibition (%) [11]: 32%
